The results in this text go back to patent US20100280125A1, “MEDICINAL AGENT” (priority 2004, published 2010).

In assay [1] the test system is melanoma 16. The class given is in vivo, mice. Conditions: for mice survived as far as the 36th day: control sub groups of 10 mice, 5 mg in water solution as a drink; for findings during the dissection: first and second sub group of the control group, 5 mg as a drink. The protocol: B57 type mice in the test and control group (60 mice each) were injected with melanoma 16. The test group were divided into 6 sub groups and the control group was divided into 3 sub groups, each with 10 mice.

Assay [2] has as its system human malignant melanoma A 375. Description: replication of melanoma cells in test glasses. The conditions noted are these: a week at 37° C. in the dark, in comparison to physiological salt solution. The class given is cell-based. The protocol: In addition, a third control group of test glasses (6 glasses) was formed with the same cancer cell pool and fibroblasts, into which adriamycin and cyclophosphan in the same dilution was introduced, as well as a corresponding test glass group with a physiological salt solution.
After thermostatization of the above-mentioned test glasses for a week at 37° C. (in the dark), the contents were analyzed.

In assay [3] the test system is papillary thyroid cancer. Put plainly: treatment of patient R, papillary thyroid cancer. The assay is classed as in vivo, human. The protocol:
The patient was treated with the medicinal agent (B.V.2) for 2 weeks; one gelatine capsule two times a day with 20 mg medicinal agent perorally after food and enemas in a single dose of 100 ml solution, comprising 50 mg medicinal agent powder, diluted in 2 ml 70% ethyl alcohol and dissolved in 100 ml water solution with 0.9% NaCl.

Assay [4] concerns cancer of the right ovary (recidiv). Description: treatment of patient I, recidiv of ovary cancer. The class given is in vivo, human. The protocol: Exstirpation of the uterus and the surrounding area on account of cancer of the right ovary was performed on patient I who was […] and had visited the doctor in November 2002. The tomogram that was dated 28 Aug.
The patient was treated with an enema of the rectum: over five days once a day, after five procedures once every other day and thereafter every third day for 15 enemas. They were treated with a single dose of 20 mg medicinal agent (B.V.2) per 15-20 ml water, diluted in 2 ml 70% ethyl alcohol.

[5] abbreviates: 3 hours after taking the dose, over 7 days.

On to `COc1cccc2c1C(=O)c1c(O)c3c(c(O)c1C2=O)C[C@@](O)(C(=O)CO)C[C@@H]3O[C@H]1C[C@H](N)[C@H](O)[C@H](C)O1` [adriamycin], for which, in assay [1], the “mice survived as far as the 36th day” value is reported as 2 mice; the “findings during the dissection” value is “lung and liver injuries”. The “suppression of the replication of the melanoma cells” value (shortened to “suppression”) in assay [2] (dilution of 10^−7 mmol/l) came to 42%. Also, the “suppression” value in assay [2] (dilution of 10^−9 mmol/l) is recorded as 30%.
“hexamethyl pararosanilin chloride [methyl violet 10B]”: in assay [3], the “duration of the dissymmetric effect” value lay within 1.0 to 1.5 h. In addition, in assay [3] (2 weeks, capsules 20 mg two times a day and enemas 50 mg, growth 5×3×1.7 cm before), the “ultrasound investigation after the treatment” value was “a primary growth and no metastases”. Besides, in assay [3] (setting [5]), the “temperature on the left side of the body (dissymmetric effect)” value was 37.3-38.6 °C and the “temperature on the right side of the body (dissymmetric effect)” value was 35.4-36.9 °C. In addition, the “growth in control investigation using ultrasound” value in assay [4] (2 Mar. 2004) is recorded as “no longer to be found”. This compound yielded an erythrocytes in assay [4] (after the treatment, before 2.5 million) of 5.5 million. In addition, in assay [4] (after the treatment, before 110,000), the thrombocytes was 300,000. Besides, the leucocytes in assay [4] (after the treatment, before up to 10,000) was 9,000.
With `O=P1(N(CCCl)CCCl)NCCCO1` (stereo not shown) [cyclophosphan], in assay [1], the “mice survived as far as the 36th day” value came out at 5 mice; the “findings during the dissection” value was “lung and liver injuries”. In addition, the “suppression” value in assay [2] (dilution of 10^−7 mmol/l) was determined as 55%. In assay [2] (dilution of 10^−9 mmol/l), the “suppression” value is listed as 35%.
